# Like-named read-outs stand apart in the source and are kept apart here.
# How the values were obtained:
# P. cepacia 23 = test: MIC, agar plate dilution method; format: cell-based, Pseudomonas cepacia
# In short: (§1)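 MIC values (μg/ml) were determined by agar plate dilution on Sensitivity Disk Agar with an inoculum of 10^6 CFU/ml. Cefotaxime and ceftazidime were run alongside as comparators.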
# S. aureus Smith = test: treatment of experimental infection of mice; format: in vivo; conditions: for ED50: Staphylococcus aureus
# E. coli Juhl = test: treatment of experimental infection of mice; format: in vivo; conditions: for ED50: Escherichia coli
# P. aeruginosa AK109 = test: MIC, agar plate dilution method; format: cell-based, Pseudomonas aeruginosa; conditions: for MIC: Pseudomonas aeruginosa
# In short: as §1
# P. aeruginosa AKR17 = test: MIC, agar plate dilution method; format: cell-based, Pseudomonas aeruginosa; conditions: for MIC: Pseudomonas aeruginosa
# In short: as §1
# P. vulgaris OB1043 = test: MIC, agar plate dilution method; format: cell-based; conditions: Proteus vulgaris
# In short: as §1
# P. mirabilis JY10 = test: MIC, agar plate dilution method; format: cell-based; conditions: Proteus mirabilis
# In short: as §1
# E. coli ML1410/Rte16 = test: MIC, agar plate dilution method; format: cell-based; conditions: for MIC: Escherichia coli, ML1410/RTE16, read-out: Minimum Inhibitory Concentration
# In short: (§2)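 Compounds are serially diluted into Sensitivity Disk Agar plates, which are then inoculated at 10^6 CFU/ml. The lowest concentration that inhibits growth is recorded as the MIC in μg/ml.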
# S. aureus JS-1 = test: MIC, agar plate dilution method; format: cell-based; conditions: Staphylococcus aureus
# In short: as §1
# S. marcescens No. 16-2 = test: MIC, agar plate dilution method; format: cell-based; conditions: Serratia marcescens
# In short: as §1
# A. calcoaceticus No. 14 = test: MIC, agar plate dilution method; format: cell-based; conditions: Acinetobacter calcoaceticus
# In short: as §1
# E. cloaceae Nek 39 = test: MIC, agar plate dilution method; format: cell-based; conditions: read-out: Minimum Inhibitory Concentration
# In short: as §1
# E. coli C/Rms149 = test: MIC, agar plate dilution method; format: cell-based; conditions: for MIC: Escherichia coli, read-out: Minimum Inhibitory Concentration
# In short: as §2
# S. aureus NIHJJC-1 = test: MIC, agar plate dilution method; format: cell-based; conditions: Staphylococcus aureus
# In short: as §1
# E. coli CSH2 = test: MIC, agar plate dilution method; format: cell-based; conditions: 10^6 CFU/ml, Sensitivity Disk Agar; for MIC: Escherichia coli, read-out: Minimum Inhibitory Concentration
# In short: as §1
# P. vulgaris No. 33 = test: MIC, agar plate dilution method; format: cell-based; conditions: Proteus vulgaris
# In short: as §1
# K. pneumoniae No. 42 = test: MIC, agar plate dilution method; format: cell-based; conditions: Klebsiella pneumoniae
# In short: as §1
# E. coli W3630/Rms212 = test: MIC, agar plate dilution method; format: cell-based; conditions: for MIC: Escherichia coli, W3630/RMS212, read-out: Minimum Inhibitory Concentration
# In short: as §2
# E. coli W3630/Rms213 = test: MIC, agar plate dilution method; format: cell-based; conditions: for MIC: Escherichia coli, W3630/RMS213, read-out: Minimum Inhibitory Concentration
# In short: as §2
# E. coli CSH = test: MIC, agar plate dilution method; format: cell-based; conditions: for MIC: Escherichia coli, read-out: Minimum Inhibitory Concentration
# In short: as §2
# C. freundii No. 7 = test: MIC, agar plate dilution method; format: cell-based; conditions: Citrobacter freundii
# In short: as §1
# E. coli NIHJJC-2 = test: MIC, agar plate dilution method; format: cell-based; conditions: for MIC: Escherichia coli
# In short: as §1
# P. aeruginosa D15 = test: treatment of experimental infection of mice; format: in vivo; conditions: for ED50: Pseudomonas aeruginosa
# P. maltophilia IID 1275 = test: MIC, agar plate dilution method; format: cell-based, Pseudomonas maltophilia; conditions: Stenotrophomonas maltophilia
# In short: as §1
# Gram-negative bacteria = conditions: background of the art; cited from earlier work
# [1] = tested on: Gram-positive bacteria and Gram-negative bacteria; test: antibacterial activity, general statement; format: cell-based; conditions: sensitive and resistant bacteria
# In short: as §1
smiles,measurement,setting,value
"CC(C)(O/N=C(\C(=O)N[C@@H]1C(=O)N2C(C(=O)[O-])=C(C[n+]3ccccc3)CS[C@H]12)c1csc(N)n1)C(=O)O [Ceftazidime, reference compound]",MIC,"P. cepacia 23; Burkholderia cepacia, 23, read-out: Minimum Inhibitory Concentration",0.39 µg/mL
same,ED50,S. aureus Smith,11 mg/kg
same,ED50,E. coli Juhl,0.33 mg/kg
same,MIC,"P. aeruginosa AK109; AK109, read-out: Minimum Inhibitory Concentration",0.39 µg/mL
same,MIC,"P. aeruginosa AKR17; AKR17, read-out: Minimum Inhibitory Concentration",> 25 µg/mL
same,MIC,"P. vulgaris OB1043; OB1043, read-out: Minimum Inhibitory Concentration",≤ 0.05 µg/mL
same,MIC,"P. mirabilis JY10; JY10, read-out: Minimum Inhibitory Concentration",≤ 0.05 µg/mL
same,Minimum Inhibitory Concentration,"E. coli ML1410/Rte16; E. coli ML1410/Rte16, 10^6 CFU/ml, Sensitivity Disk Agar",0.20 µg/mL
same,MIC,E. coli ML1410/Rte16,0.2 µg/mL
same,MIC,"S. aureus JS-1; JS1, read-out: Minimum Inhibitory Concentration",> 25 µg/mL
same,MIC,"S. marcescens No. 16-2; NO.162, read-out: Minimum Inhibitory Concentration",1.56 µg/mL
same,MIC,"A. calcoaceticus No. 14; NO.14, read-out: Minimum Inhibitory Concentration",6.25 µg/mL
same,MIC,E. cloaceae Nek 39,0.78 µg/mL
same,Minimum Inhibitory Concentration,"E. coli C/Rms149; E. coli C/Rms149, 10^6 CFU/ml, Sensitivity Disk Agar",0.20 µg/mL
same,MIC,E. coli C/Rms149,0.2 µg/mL
same,MIC,"S. aureus NIHJJC-1; NIHJJC1, read-out: Minimum Inhibitory Concentration",3.12 µg/mL
same,Minimum Inhibitory Concentration,E. coli CSH2,0.1 µg/mL
same,MIC,E. coli CSH2,0.1 µg/mL
same,MIC,"P. vulgaris No. 33; NO.33, read-out: Minimum Inhibitory Concentration",≤ 0.05 µg/mL
same,MIC,"K. pneumoniae No. 42; NO.42, read-out: Minimum Inhibitory Concentration",0.39 µg/mL
same,Minimum Inhibitory Concentration,"E. coli W3630/Rms212; E. coli W3630/Rms212, 10^6 CFU/ml, Sensitivity Disk Agar",0.20 µg/mL
same,MIC,E. coli W3630/Rms212,0.2 µg/mL
same,Minimum Inhibitory Concentration,"E. coli W3630/Rms213; E. coli W3630/Rms213, 10^6 CFU/ml, Sensitivity Disk Agar",0.20 µg/mL
same,MIC,E. coli W3630/Rms213,0.2 µg/mL
same,Minimum Inhibitory Concentration,"E. coli CSH; E. coli CSH, 10^6 CFU/ml, Sensitivity Disk Agar",0.10 µg/mL
same,MIC,E. coli CSH,0.1 µg/mL
same,MIC,"C. freundii No. 7; NO.7, read-out: Minimum Inhibitory Concentration",1.56 µg/mL
same,Minimum Inhibitory Concentration,"E. coli NIHJJC-2; E. coli NIHJJC-2, 10^6 CFU/ml, Sensitivity Disk Agar",0.1 µg/mL
same,MIC,"E. coli NIHJJC-2; NIHJJC2, read-out: Minimum Inhibitory Concentration",0.1 µg/mL
same,ED50,P. aeruginosa D15; D15,38 mg/kg
same,MIC,"P. maltophilia IID 1275; IID1275, read-out: Minimum Inhibitory Concentration",> 25 µg/mL
same,antibacterial activity (in words),Gram-negative bacteria,the most excellent cephalosporin derivative against Gram-negative bacteria
"CON=C(C(=O)NC1C(=O)N2C(C(=O)[O-])=C(C[N+]3(C)Cc4cc(O)c(O)cc4C3)CSC12)c1csc(N)n1 (stereo not shown) [Ex. 4-D, 7-[(Z)-2-(2-aminothiazol-4-yl)-2-methoxyiminoacetamido]-3-(5,6-dihydroxy-2-methyl-2-isoindolinium)methyl-3-cephem-4-carboxylate]",MIC,"P. cepacia 23; Burkholderia cepacia, P. cepacia 23, 10^6 CFU/ml, Sensitivity Disk Agar, read-out: Minimum Inhibitory Concentration",0.2 µg/mL
same,antibacterial activity relative to the compound of Reference Example,P. cepacia 23; Pseudomonas cepacia 23,at least 32 times
same,ED50,"S. aureus Smith; mice infected with S. aureus Smith, read-out: ED50",6.2 mg/kg
same,efficacy relative to Ceftazidime,S. aureus Smith; experimental infections of mice caused by S. aureus Smith,about twice as high
same,ED50,"E. coli Juhl; mice infected with E. coli Juhl, read-out: ED50",0.12 mg/kg
same,efficacy relative to Ceftazidime,E. coli Juhl; experimental infections of mice caused by E. coli Juhl,about twice as high
same,antibacterial activity relative to the compound of Reference Example,P. aeruginosa AK109; Pseudomonas aeruginosa AK109,at least 16 times
same,MIC,"P. aeruginosa AK109; P. aeruginosa AK109, 10^6 CFU/ml, Sensitivity Disk Agar, read-out: Minimum Inhibitory Concentration",0.1 µg/mL
same,antibacterial activity relative to the compound of Reference Example,"P. aeruginosa AKR17; Pseudomonas aeruginosa AKR-17, resistant to all cephalosporins including Ceftazidime",at least 32 times
same,MIC,"P. aeruginosa AKR17; P. aeruginosa AKR17, 10^6 CFU/ml, Sensitivity Disk Agar, read-out: Minimum Inhibitory Concentration",0.78 µg/mL
same,MIC,"P. vulgaris OB1043; P. vulgaris OB1043, 10^6 CFU/ml, Sensitivity Disk Agar, read-out: Minimum Inhibitory Concentration",3.12 µg/mL
same,MIC,"P. mirabilis JY10; P. mirabilis JY10, 10^6 CFU/ml, Sensitivity Disk Agar, read-out: Minimum Inhibitory Concentration",0.39 µg/mL
same,MIC,E. coli ML1410/Rte16,0.1 µg/mL
same,MIC,"S. aureus JS-1; JS1, S. aureus JS-1, 10^6 CFU/ml, Sensitivity Disk Agar, read-out: Minimum Inhibitory Concentration",25 µg/mL
same,MIC,"S. marcescens No. 16-2; NO.162, S. marcescens No. 16-2, 10^6 CFU/ml, Sensitivity Disk Agar, read-out: Minimum Inhibitory Concentration",6.25 µg/mL
same,antibacterial activity relative to the compound of Reference Example,A. calcoaceticus No. 14,at least 32 times
same,MIC,"A. calcoaceticus No. 14; A. calcoaceticus No. 14, 10^6 CFU/ml, Sensitivity Disk Agar, read-out: Minimum Inhibitory Concentration",0.2 µg/mL
same,MIC,"E. cloaceae Nek 39; E. cloaceae Nek 39, 10^6 CFU/ml, Sensitivity Disk Agar",≤ 0.05 µg/mL
same,MIC,E. coli C/Rms149,0.1 µg/mL
same,MIC,"S. aureus NIHJJC-1; NIHJJC1, S. aureus NIHJJC-1, 10^6 CFU/ml, Sensitivity Disk Agar, read-out: Minimum Inhibitory Concentration",6.25 µg/mL
same,MIC,E. coli CSH2,0.2 µg/mL
same,MIC,"P. vulgaris No. 33; P. vulgaris No. 33, 10^6 CFU/ml, Sensitivity Disk Agar, read-out: Minimum Inhibitory Concentration",0.78 µg/mL
same,MIC,"K. pneumoniae No. 42; K. pneumoniae No. 42, 10^6 CFU/ml, Sensitivity Disk Agar, read-out: Minimum Inhibitory Concentration",0.2 µg/mL
same,MIC,E. coli W3630/Rms212,≤ 0.05 µg/mL
same,MIC,E. coli W3630/Rms213,0.78 µg/mL
same,MIC,E. coli CSH,1.56 µg/mL
same,MIC,"C. freundii No. 7; C. freundii No. 7, 10^6 CFU/ml, Sensitivity Disk Agar, read-out: Minimum Inhibitory Concentration",6.25 µg/mL
same,MIC,"E. coli NIHJJC-2; NIHJJC2, E. coli NIHJJC-2, 10^6 CFU/ml, Sensitivity Disk Agar, read-out: Minimum Inhibitory Concentration",≤ 0.05 µg/mL
same,ED50,"P. aeruginosa D15; mice infected with P. aeruginosa D15, read-out: ED50",14 mg/kg
same,efficacy relative to Ceftazidime,P. aeruginosa D15; experimental infections of mice caused by P. aeruginosa D15,about twice as high
same,MIC,"P. maltophilia IID 1275; IID1275, P. maltophilia IID 1275, 10^6 CFU/ml, Sensitivity Disk Agar, read-out: Minimum Inhibitory Concentration",25 µg/mL
same,antibacterial activity (in words),[1],particularly strong antibacterial activities
